From ChEMBL document CHEMBL5727988, “Prodrugs of pyridone amides useful as modulators of sodium channels” (2020)

Test: Electrophysiology Assay: Patch clamp electrophysiology was used to assess the efficacy and selectivity of sodium channel blockers in dorsal root ganglion neurons. Rat neurons were isolated from the dorsal root ganglions and maintained in culture for 2 to 10 days in the presence of NGF (50 ng/ml) (culture media consisted of NeurobasalA supplemented with B27, glutamine and antibiotics). Small diameter neurons (nociceptors, 8-12 μm in diameter) were visually identified and probed with fine tip glass electrodes connected to an amplifier (Axon Instruments). The “voltage clamp” mode was used to assess the compound's IC50 holding the cells at −60 mV. In addition, the “current clamp” mode was employed to test the efficacy of the compounds in blocking action potential generation in response to current injections.

Compound	IC50
COc1cc(NC(=O)c2ccc(C(F)(F)F)cc2F)ccn1	44 nM
Cc1cc(F)ccc1Oc1cc(C(F)(F)F)ccc1C(=O)Nc1ccn(CCl)c(=O)c1	28 nM
